The results in this text go back to ChEMBL document CHEMBL3297689, “Phenylalanine-Based Inactivator of AKT Kinase: Design, Synthesis, and Biological Evaluation” (ACS Med Chem Lett, 2014).

Assay [1] concerns the target T1, RAC-alpha serine/threonine-protein kinase (Homo sapiens, UniProt P31749). The experiment in a line: Inhibition of AKT1 (unknown origin) after 1 hr by Z'-LYTE kinase assay in presence of 75 uM ATP.
Assay [2] can be described thus: Growth inhibition of human HCT116 cells after 72 hrs by coulter counter method. It counts as functional, cell-based. Particulars: HCT-116, 72 h.
The test system of assay [3] is NCI-H460. The experiment in a line: Growth inhibition of human NCI-H460 cells after 72 hrs by coulter counter method. The assay is classed as functional, cell-based. Particulars: NCI-H460, 72 h.
For assay [4], the target named is T1, RAC-alpha serine/threonine-protein kinase. Briefly: Binding affinity to AKT1 (unknown origin) assessed as covalent modification at Cys310 residue by mass spectrometry.
The target is the same in assay [5]. Briefly: Inhibition of AKT1 (unknown origin) after 30 mins by scintillation counting analysis in presence of 100 uM ATP.

Activity calls are given as the source filed them. The rule behind the calls is not given here. Where a SMILES comes first, the peptide text is derived from it. [ ]: non-standard residue; d: D form. NMeV = CN[C@H](C(=O)O)C(C)C; GABA = NCCCC(=O)O

T1 sequence (P31749 whole entry): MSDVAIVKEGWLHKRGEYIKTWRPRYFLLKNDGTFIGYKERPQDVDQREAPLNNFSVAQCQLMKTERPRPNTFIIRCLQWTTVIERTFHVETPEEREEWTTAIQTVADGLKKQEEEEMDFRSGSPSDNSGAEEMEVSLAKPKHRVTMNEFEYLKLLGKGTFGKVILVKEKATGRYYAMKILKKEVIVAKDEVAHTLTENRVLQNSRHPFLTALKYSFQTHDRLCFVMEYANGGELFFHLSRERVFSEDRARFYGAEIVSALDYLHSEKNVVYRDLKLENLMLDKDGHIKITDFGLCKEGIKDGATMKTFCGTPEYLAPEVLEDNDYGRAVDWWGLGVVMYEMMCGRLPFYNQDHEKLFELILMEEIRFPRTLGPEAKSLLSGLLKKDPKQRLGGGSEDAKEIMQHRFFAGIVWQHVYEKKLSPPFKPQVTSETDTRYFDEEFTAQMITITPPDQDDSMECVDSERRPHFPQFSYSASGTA

On to `CC(C)(C)OC(=O)NN(Cc1ccccc1)C(=O)CBr`, for which the half-maximal inhibitory concentration (IC50) (commonly the concentration that inhibits the measured activity by half) in assay [1] was 24.7 µM.
Still for that read-out and setting: as for `CC(C)(C)OC(=O)N[C@@H](Cc1ccccc1)C(=O)NCCN1C(=O)C=CC1=O`, the figure is 4.48 µM.
Turning to `NC1(c2ccc(-c3nc4ccn5c(=O)[nH]nc5c4cc3-c3ccccc3)cc2)CCC1` [MK-2206], the 50% inhibitory concentration (IC50) was found to be 7.5 µM in assay [2] and 5.4 µM in assay [3].
As for `CC(C)(C)OC(=O)NN(Cc1ccccc1)C(=O)CI`, in assay [1], the IC50 stood at 16.1 µM.
Same read-out and setting: the result for `CC(C)(C)OC(=O)N[C@@H](Cc1ccccc1)C(=O)NCCI` reads over 100 µM; that for `C=CC(=O)N(Cc1ccccc1)NC(=O)OC(C)(C)C`, over 100 µM.
As for `CC(C)(C)OC(=O)N[C@@H](Cc1ccccc1)C(=O)NCCCl`, in assay [1], the IC50 is over 100 µM.
On the same count and under the same terms, the result for `CC(C)(C)OC(=O)NN(Cc1ccccc1)C(=O)CN1C(=O)C=CC1=O` reads 4.68 µM.
In the case of `CCn1c(-c2nonc2N)nc2c(C#CC(C)(C)O)ncc(OC[C@H]3CCCNC3)c21` [GSK-690693], the values for the IC50 in assay [2] and in assay [3] were 8.2 µM and 5.4 µM, respectively.
As to `CCC(=O)[C@H](Cc1ccccc1)NC(=O)OC(C)(C)C`, the IC50 in assay [1], in assay [2] and in assay [3] was over 100 µM each time.
In the case of `CC(C)(C)OC(=O)NN(Cc1ccccc1)C(=O)CCl`, the IC50 in assay [1] is over 100 µM.
For the compound `CC(C)(C)OC(=O)N[C@@H](Cc1ccccc1)C(=O)NCCBr`, the concentration for half-maximal inhibition (IC50) in assay [1] was over 100 µM.
For the compound `C=CC(=O)[C@H](Cc1ccccc1)NC(=O)OCc1cn(CCCCCCNC(=S)Nc2ccc(-c3c4ccc(=O)cc-4oc4cc(O)ccc34)c(C(=O)O)c2)nn1`, the result in assay [4] was Active.
As for `COC[C@H](NC(=O)[C@H](Cc1ccc(O)cc1)NC(=O)[C@H](C(C)C)N(C)C(=O)[C@H](CCCNC(=N)N)NC(=O)[C@@H]1CCCN1C(=O)[C@@H](N)CCCNC(=N)N)C(=O)NCCCC(=O)O` (H-RPR[NMeV]YS(Me)[GABA]-OH), in assay [5], the IC50 was found to be 200 nM.
